From ChEMBL document CHEMBL1201862, “PubChem BioAssay data set” (2004)
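Dose response: 5 concentrations. Exposure: 48 h. Format: 96-well plates. Endpoint: linear interpolation; highest concentration if not reached. GI50: concentration for 50% inhibition of growth.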 Activity calls are given as the source filed them. Cut-off read from the data, not from the text of the source: active = GI50 up to about 1.1 µM and inactive = higher.

Assays:
Experiment in all cases: growth of human tumour cells (NCI), 48 h
Hs-578T = test system: Hs-578T
RXF 393 = test system: RXF 393
NCI/ADR-RES = test system: NCI/ADR-RES
SK-MEL-2 = test system: SK-MEL-2
SK-MEL-28 = test system: SK-MEL-28
SR = test system: SR
786-0 = test system: 786-0
A498 = test system: A498
RPMI-8226 = test system: RPMI-8226
HOP-92 = test system: HOP-92
NCI-H226 = test system: NCI-H226
DU-145 = test system: DU-145
HCT-116 = test system: HCT-116
HOP-62 = test system: HOP-62
SK-MEL-5 = test system: SK-MEL-5
OVCAR-5 = test system: OVCAR-5
PC-3 = test system: PC-3
HCC 2998 = test system: HCC 2998

Compound	GI50 (Hs-578T)	GI50 (RXF 393)	GI50 (NCI/ADR-RES)	GI50 (SK-MEL-2)	GI50 (SK-MEL-28)	GI50 (SR)	GI50 (786-0)	GI50 (A498)	GI50 (RPMI-8226)	GI50 (HOP-92)	GI50 (NCI-H226)	GI50 (DU-145)	GI50 (HCT-116)	GI50 (HOP-62)	GI50 (SK-MEL-5)	GI50 (OVCAR-5)	GI50 (PC-3)	GI50 (HCC 2998)
COc1cccc(Cc2cc(=O)c3ccc(C)nc3[nH]2)c1	60.1 µM (inactive)	> 100 µM (inactive)	> 100 µM (inactive)	> 100 µM (inactive)	> 100 µM (inactive)	35.8 µM (inactive)	> 100 µM (inactive)	73.5 µM (inactive)	48.6 µM (inactive)	> 100 µM (inactive)	> 100 µM (inactive)	> 100 µM (inactive)	> 100 µM (inactive)	> 100 µM (inactive)	> 100 µM (inactive)	> 100 µM (inactive)	–	–
O=C1C=C(N2CCN(CCOCCO)CC2)C(=O)c2c(O)ccc(O)c21	20.1 µM (inactive)	13.2 µM (inactive)	2.94 µM (inactive)	6.97 µM (inactive)	17.1 µM (inactive)	–	8.55 µM (inactive)	14.4 µM (inactive)	4.44 µM (inactive)	7.89 µM (inactive)	16.9 µM (inactive)	3.42 µM (inactive)	2.02 µM (inactive)	17.9 µM (inactive)	1.72 µM (inactive)	3.9 µM (inactive)	3.07 µM (inactive)	2.7 µM (inactive)
O=C(NCP(=O)(Oc1ccccc1)Oc1ccccc1)OCc1ccccc1	40.7 µM (inactive)	–	> 100 µM (inactive)	> 100 µM (inactive)	> 100 µM (inactive)	> 100 µM (inactive)	53.2 µM (inactive)	–	> 100 µM (inactive)	38.7 µM (inactive)	> 100 µM (inactive)	–	–	39.8 µM (inactive)	> 100 µM (inactive)	> 100 µM (inactive)	43.9 µM (inactive)	–
Cc1ccc(I)cc1N=C=S	29.9 µM (inactive)	20.2 µM (inactive)	25.9 µM (inactive)	17.8 µM (inactive)	20.2 µM (inactive)	–	23.6 µM (inactive)	21.2 µM (inactive)	20.8 µM (inactive)	43.4 µM (inactive)	18.3 µM (inactive)	28.3 µM (inactive)	29.8 µM (inactive)	26.1 µM (inactive)	16.5 µM (inactive)	23.4 µM (inactive)	20.3 µM (inactive)	–
O=C1C=CC(=O)C(CNc2ccc(C(=O)OC34CC5CC(CC(C5)C3)C4)cc2)=C1Br	6.35 µM (inactive)	4.98 µM (inactive)	3.82 µM (inactive)	15.4 µM (inactive)	–	–	13.2 µM (inactive)	17.9 µM (inactive)	5.6 µM (inactive)	2.34 µM (inactive)	16.7 µM (inactive)	23.6 µM (inactive)	12.7 µM (inactive)	19 µM (inactive)	9.31 µM (inactive)	16.7 µM (inactive)	4.76 µM (inactive)	12.4 µM (inactive)
CC(=O)C1=C(N=[N+]=[N-])c2cccc3cccc(c23)C1=O	29.3 µM (inactive)	11.4 µM (inactive)	25.1 µM (inactive)	12.4 µM (inactive)	–	–	17.1 µM (inactive)	28.8 µM (inactive)	18.5 µM (inactive)	21.7 µM (inactive)	24.7 µM (inactive)	–	16 µM (inactive)	14.8 µM (inactive)	18.7 µM (inactive)	16.5 µM (inactive)	19.8 µM (inactive)	17.6 µM (inactive)
COC(c1ccsc1)C(C#N)(C#N)/N=C/c1ccsc1 (stereo not drawn)	22.1 µM (inactive)	12.7 µM (inactive)	17.7 µM (inactive)	19 µM (inactive)	18.6 µM (inactive)	–	17.3 µM (inactive)	14.9 µM (inactive)	–	12 µM (inactive)	21.6 µM (inactive)	15.2 µM (inactive)	12.8 µM (inactive)	17.4 µM (inactive)	13.6 µM (inactive)	20.9 µM (inactive)	14 µM (inactive)	19.8 µM (inactive)
Cc1ccc2c(=O)c(-c3n[nH]c(=S)s3)c[nH]c2n1	> 100 µM (inactive)	> 100 µM (inactive)	> 100 µM (inactive)	> 100 µM (inactive)	> 100 µM (inactive)	–	> 100 µM (inactive)	> 100 µM (inactive)	> 100 µM (inactive)	–	> 100 µM (inactive)	> 100 µM (inactive)	> 100 µM (inactive)	> 100 µM (inactive)	> 100 µM (inactive)	> 100 µM (inactive)	> 100 µM (inactive)	–
COc1cc2[nH]c(=O)c3cc(C)cc4c(Cl)nc(c1OC)c2c43	–	21 µM (inactive)	> 100 µM (inactive)	32.9 µM (inactive)	> 100 µM (inactive)	–	20 µM (inactive)	–	34.9 µM (inactive)	35.9 µM (inactive)	45.7 µM (inactive)	61.8 µM (inactive)	40.1 µM (inactive)	23.6 µM (inactive)	55.6 µM (inactive)	> 100 µM (inactive)	> 100 µM (inactive)	> 100 µM (inactive)
CCOC(=O)N(c1ccccc1)c1cc(=O)n2ccccc2n1	–	38.9 µM (inactive)	> 100 µM (inactive)	–	> 100 µM (inactive)	> 100 µM (inactive)	> 100 µM (inactive)	> 100 µM (inactive)	> 100 µM (inactive)	–	> 100 µM (inactive)	> 100 µM (inactive)	> 100 µM (inactive)	> 100 µM (inactive)	> 100 µM (inactive)	> 100 µM (inactive)	–	> 100 µM (inactive)
O=c1[nH]c(=O)n(C2CC(O)C(COP(=O)(O)OC3CC(n4cc(F)c(=O)[nH]c4=O)OC3COP(=O)(O)OC3CC(n4cc(F)c(=O)[nH]c4=O)OC3COP(=O)(O)OC3CC(n4cc(F)c(=O)[nH]c4=O)OC3COP(=O)(O)OC3CC(n4cc(F)c(=O)[nH]c4=O)OC3COP(=O)(O)OC3CC(n4cc(F)c(=O)[nH]c4=O)OC3COP(=O)(O)OC3CC(n4cc(F)c(=O)[nH]c4=O)OC3COP(=O)(O)OC3CC(n4cc(F)c(=O)[nH]c4=O)OC3COP(=O)(O)OC3CC(n4cc(F)c(=O)[nH]c4=O)OC3COP(=O)(O)OC3CC(n4cc(F)c(=O)[nH]c4=O)OC3CO)O2)cc1F (stereo not drawn)	–	0.217 µM (active)	< 0.005 µM (active)	3.07 µM (inactive)	0.286 µM (active)	< 0.005 µM (active)	< 0.005 µM (active)	< 0.005 µM (active)	0.232 µM (active)	0.0202 µM (active)	0.194 µM (active)	< 0.005 µM (active)	0.0109 µM (active)	< 0.005 µM (active)	0.00824 µM (active)	–	0.0767 µM (active)	0.0234 µM (active)
COc1cc(NC(C)CCCN)c2nccc(C)c2c1 (stereo not drawn)	26.8 µM (inactive)	–	11.6 µM (inactive)	19.2 µM (inactive)	19.5 µM (inactive)	19.7 µM (inactive)	19 µM (inactive)	–	20.9 µM (inactive)	24.9 µM (inactive)	–	48.3 µM (inactive)	15.8 µM (inactive)	17.1 µM (inactive)	25.7 µM (inactive)	96.4 µM (inactive)	–	19.9 µM (inactive)
O=C(O)c1ccccc1CC1Cc2cc3c(cc2C1)CCC3	> 100 µM (inactive)	89.1 µM (inactive)	> 100 µM (inactive)	> 100 µM (inactive)	> 100 µM (inactive)	> 100 µM (inactive)	> 100 µM (inactive)	> 100 µM (inactive)	88.3 µM (inactive)	–	> 100 µM (inactive)	> 100 µM (inactive)	> 100 µM (inactive)	> 100 µM (inactive)	> 100 µM (inactive)	> 100 µM (inactive)	–	> 100 µM (inactive)
CC(C)(C)[Si](C)(C)OCCC1CC2(S(=O)(=O)C3=CC=C=C=C3)ON1CC2S(=O)(=O)c1ccccc1 (stereo not drawn)	> 10 µM (inactive)	> 10 µM (inactive)	> 10 µM (inactive)	> 10 µM (inactive)	> 10 µM (inactive)	–	> 10 µM (inactive)	> 10 µM (inactive)	> 10 µM (inactive)	–	> 10 µM (inactive)	> 10 µM (inactive)	> 10 µM (inactive)	> 10 µM (inactive)	> 10 µM (inactive)	> 10 µM (inactive)	–	> 10 µM (inactive)
COc1cccc(-c2cc(O)c3cc(NC(C)=O)ccc3n2)c1	2.63 µM (inactive)	–	62.8 µM (inactive)	–	33.2 µM (inactive)	2.34 µM (inactive)	28.9 µM (inactive)	17 µM (inactive)	42.9 µM (inactive)	8.17 µM (inactive)	–	–	–	32.4 µM (inactive)	14.6 µM (inactive)	59.4 µM (inactive)	23.7 µM (inactive)	> 100 µM (inactive)
COc1cc(C(=O)O[C@H]2CCC3CCC2N3C)cc(OC)c1OC (stereo partly drawn)	> 100 µM (inactive)	> 100 µM (inactive)	> 100 µM (inactive)	–	> 100 µM (inactive)	> 100 µM (inactive)	> 100 µM (inactive)	36.3 µM (inactive)	> 100 µM (inactive)	34.4 µM (inactive)	> 100 µM (inactive)	> 100 µM (inactive)	> 100 µM (inactive)	> 100 µM (inactive)	> 100 µM (inactive)	> 100 µM (inactive)	–	> 100 µM (inactive)
Clc1ccc(COC(Cn2ccnc2)c2ccc(Cl)cc2Cl)c(Cl)c1 (stereo not drawn) [MICONAZOLE NITRATE]	–	–	4 µM (inactive)	13.1 µM (inactive)	12.7 µM (inactive)	–	10.9 µM (inactive)	–	–	–	–	13 µM (inactive)	5.3 µM (inactive)	13.2 µM (inactive)	–	12.9 µM (inactive)	5.7 µM (inactive)	12.8 µM (inactive)
